What was measured:
L929 = test: Growth inhibition of mouse L929 cells by MTT assay; type: functional, cell-based
[1] = Inhibition of tobacco hornworm midgut vacuolar ATPase V1/V0 holoenzyme; set-up: species or system Manduca sexta

## CNC(=O)O[C@@H](CC(C)C)c1nc([C@H]2OC(=O)/C(C)=C/C/C(C)=C/[C@@H](OC(=O)c3ccc([N+](=O)[O-])cc3)[C@@H](C)\C=C(C)/C=C(C)\C=C\[C@@H](O)[C@H](C)[C@H](OC)/C(C)=C/C=C/[C@@H]2C)cs1
L929
  IC50: 0.29 µM

## CNC(=O)O[C@@H](CC(C)C)c1nc([C@H]2OC(=O)/C(C)=C/C/C(C)=C/[C@@H](O)[C@@H](C)\C=C(C)/C=C(C)\C=C\C(=O)[C@H](C)[C@H](OC)/C(C)=C/C=C/[C@@H]2C)cs1 [DEHYDROARCHAZOLID]
L929
  IC50: > 5 µM

## CNC(=O)O[C@@H](CC(C)C)c1nc([C@H]2OC(=O)/C=C/C/C(C)=C/[C@@H](O)[C@@H](C)\C=C(C)/C=C(C)\C=C\[C@@H](O)[C@H](C)[C@H](OC)/C(C)=C/C=C/[C@@H]2C)cs1 [ARCHAZOLID B]
L929
  IC50: 0.0011 µM

## CNC(=O)O[C@@H](CC(C)C)c1nc([C@H]2OC(=O)/C(C)=C/C/C(C)=C/[C@@H](O)[C@@H](C)\C=C(C)/C=C(C)\C=C\[C@@H](O)[C@H](C)[C@H](OC)/C(C)=C/C=C/[C@@H]2C)cs1 [ARCHAZOLID A]
L929
  IC50: 0.00081 µM
[1]
  IC50: 0.6 nmol

## CNC(=O)O[C@@H](CC(C)C)c1nc([C@H]2OC(=O)/C(C)=C/C/C(C)=C/[C@@H](O[Si](C)(C)C(C)(C)C)[C@@H](C)\C=C(C)/C=C(C)\C=C\[C@@H](O)[C@H](C)[C@H](OC)/C(C)=C/C=C/[C@@H]2C)cs1
L929
  IC50: 0.94 µM

## CO[C@@H]1/C(C)=C/C=C/[C@H](C)[C@@H](c2csc([C@@H](O)CC(C)C)n2)OC(=O)/C(C)=C/C/C(C)=C/[C@@H](O)[C@@H](C)\C=C(C)/C=C(C)\C=C\[C@@H](O)[C@@H]1C
L929
  IC50: 0.014 µM
